Test system: S. aureus ATCC 29213
Test: Time-kill experiments, aminoglycoside alone or with tomatidine (FIGS. 8-10)

C[C@H]1CC[C@]2(NC1)O[C@H]1C[C@H]3[C@@H]4CC[C@H]5C[C@@H](O)CC[C@]5(C)[C@H]4CC[C@]3(C)[C@H]1[C@@H]2C [Tomatidine, tomatidine]
emergence of resistant CFU (combination of tomatidine (8 μg/ml) and gentamicin, FIG. 10): significantly reduced the emergence
number of CFU recovered (cultures exposed to gentamicin 0.5 to 4 μg/ml for 24 h, with 8 μg/ml tomatidine, FIG. 10): significantly decrease
regrowth of bacteria exposed to gentamicin or tobramycin (tomatidine at 8 μg/ml with aminoglycoside 1 μg/ml, 24 h, FIG. 9): markedly reduced the regrowth
